The target of one series is T1, Human LPA1 (Homo sapiens, UniProt Q92633).
T1 construct: the full-length cDNA for human LPA1 was obtained by PCR of the reverse transcription reaction; expressed in transfected cells
Put plainly: LPA1 Calcium Flux Assay. The series is classed as cell-based. To be noted: human LPA1 expressing CHO cells, 10 nM LPA; read-out: Ca Flux IC50 LPA1. As for the experimental part:
A 1.1 kb cDNA encoding the human LPA1 receptor was cloned from human lung. Human lung RNA (Clontech Laboratories, Inc. USA) was reverse transcribed using the RETROscript kit (Ambion, Inc.) and the full-length cDNA for human LPA1 was obtained by PCR of the reverse transcription reaction. The nucleotide sequence of the cloned human LPA1 was determined by sequencing and confirmed to be identical to the published human LPA1 sequence (An et al. Biochem. Biophys. Res. Commun. 231:619 (1997). The cDNA was cloned into the pCDNA5/FRT expression plasmid and transfected in CHO cells using lipofectamine 2000 (Invitrogen Corp., USA). Clones stably expressing human LPA1 were selected using hygromycin and identified as cells that show Ca-influx in response to LPA.
(§1) Human LPA1 or LPA3 expressing CHO cells are seeded at 20,000-45,000 cells per well in a 96-well poly-D-lysine coated plate one or two days before the assay. Prior to the assay, the cells are washed once with PBS and then cultured in serum-free media overnight. On the day of the assay, a calcium indicator dye (Calcium 4, Molecular Devices) in assay buffer (HBSS with Ca^2+ and Mg^2+ and containing 20 mM Hepes and 0.3% fatty-acid free human serum albumin) is added to each well and incubation continued for 1 hour at 37° C. 10 μl of test compound in 2.5% DMSO are added to the cells and incubation continued at room temperature for 30 minutes. Cells are the stimulated by the addition of 10 nM LPA and intracellular Ca^2+ measured using the Flexstation 3 (Molecular Devices). IC50s are determined using Graphpad prism analysis of drug titration curves.
(Calcium assays in cells follow changes in intracellular calcium, usually with a dye or a luminescent sensor.)

The target in a further series is T2, Human LPA3 (Homo sapiens, UniProt Q9UBY5).
T2 construct: The full-length cDNA fragment for human LPA3 was obtained by PCR from the vector
T2 sequence (Q9UBY5 1-353): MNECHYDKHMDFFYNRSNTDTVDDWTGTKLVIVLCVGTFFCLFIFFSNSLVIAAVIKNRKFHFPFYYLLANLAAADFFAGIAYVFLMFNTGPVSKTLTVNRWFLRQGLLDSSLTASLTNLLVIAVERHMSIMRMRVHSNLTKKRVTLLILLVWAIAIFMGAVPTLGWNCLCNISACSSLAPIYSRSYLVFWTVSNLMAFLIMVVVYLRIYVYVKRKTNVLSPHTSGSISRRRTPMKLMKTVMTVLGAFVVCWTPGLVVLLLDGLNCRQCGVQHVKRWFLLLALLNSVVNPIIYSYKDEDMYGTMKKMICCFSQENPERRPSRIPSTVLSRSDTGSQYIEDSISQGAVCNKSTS
Put plainly: LPA3 Calcium Flux Assay. To be noted: human LPA3 expressing CHO cells, 10 nM LPA; read-out: Ca Flux IC50 LPA3. Type of series: cell-based. As for the experimental part: A vector containing the human LPA3 receptor cDNA was obtained from the Missouri S&T cDNA Resource Center (www.cdna.org). The full-length cDNA fragment for human LPA3 was obtained by PCR from the vector. The nucleotide sequence of the cloned human LPA3 was determined by sequencing and confirmed to be identical to the published human LPA3 sequence (NCBI accession number NM_012152). The cDNA was cloned into the pCDNA5/FRT expression plasmid and transfected in CHO cells using lipofectamine 2000 (Invitrogen Corp., USA). Clones stably expressing human LPA3 were selected using hygromycin and identified as cells that show Ca-influx in response to LPA.
as §1

Series [1] in a line: Pharmacokinetics in Male Beagle Dogs. The series is classed as in vivo. The conditions noted are these: for bioavailability: po, 5 mg/kg, read-out: apparent oral bioavailability. The protocol:
The pharmacokinetics of Compound 1 and Compound 2 was assessed in male Beagle dogs.
Dosing of male Beagle dogs (n=3) was performed. Compound 1 or Compound 2 was dosed intravenously at 2 mg/kg (fasted) and orally (fasted or non-fasted) at 5 mg/kg. In fasted animals, food was withheld a minimum of 12 hours prior to dosing and then returned 4 hours post-dose. Non-fasted animals were allowed to feed 1 hour prior to dosing ad libitum. Compound 2 capsules were given by oral gavage in the fasted state. Plasma samples were collected by Perry Scientific study personnel.
The capsules are noted in Table 25 below. Capsules were size 0 gelatin (Capsugel, Peapack, N.J.). Tablet formulations are noted in Example 24.
For the clinical drug product oral solution of active agent (1.67 mg/mL), sucralose (0.5% w/w) and cherry flavor (0.5% w/w) is added to the formulation as a sweetener and taste masking agent, respectively to a 0.5% methocel aqueous solution.
Blood samples (approximately 1 mL total blood) were taken from each dog at pre-dose, and an initial time of 5 or 15 min and then various time points up to 24 hours post-dose (10-11 samples per animal). Samples were collected on wet ice in tubes containing potassium EDTA. After each blood draw, the cannula was flushed with an equivalent volume of heparinized saline (0.1 mL at 40 units/mL). Plasma samples, prepared by centrifugation of whole blood, were stored frozen (−80° C.) prior to analysis.

A short description of series [2]: Thermodynamic aqueous solubility. Type of series: physicochemical. The conditions noted are these: water, 25 °C, thermodynamic from solid, equilibrated at 25° C. for 24 hours, read-out: Solubility (mg/ml, free form equivalent). The protocol: Aqueous solubility was determined by suspending sufficient compound in water to give a maximum final concentration of ≧10 mg·ml−1 of the parent free-form of the compound. The suspension was equilibrated at 25° C. for 24 hours then the pH was measured. The suspension was then filtered through a glass fiber C filter into a 96 well plate unless stated otherwise. The filtrate was then diluted by a factor of 101. Quantification was by HPLC with reference to a standard solution of approximately 0.25 mg·ml^−1 in DMSO. Different volumes of the standard, diluted and undiluted sample solutions were injected. The solubility was calculated using the peak areas determined by integration of the peak found at the same retention time as the principal peak in the standard injection.
Analysis was performed on an Agilent HP1100 series system equipped with a diode array detector and using ChemStation software vB.02.01-SR1.

Series [3] in a line: Pharmacokinetics in Sprague-Dawley Rats. Type of series: in vivo. To be noted: for half-life: Sprague-Dawley, rat, plasma; for dose normalized exposure: oral, 10 mg/kg. The protocol:
The pharmacokinetics of Compound 1 and Compound 2 was assessed in male and female Sprague-Dawley rats (225-300 g at 10 weeks).
Compound 2 (1 mg/kg) was administered intravenously (IV) to fasted rats (n=3) as a solution in purified water via a bolus injection into the jugular vein (1 mg/mL; 1 mL/kg). Compound 1 (10 mg/kg) was administered orally (PO), to fasted (for at least 12 hours) or non-fasted rats (n=2 or 3) as a solution in 0.5% methylcellulose unless otherwise noted via an oral gavage to the stomach (3.33 mg/mL; 3 mL/kg). Non-fasted animals were fasted for at least 12 hours and then were given food ad libitum for 1 hour prior to dosing. Fasted animals were dosed 1, 10, 30, 100 or 300 mg/kg Compound 1 as a solution in 0.5% methylcellulose via an oral gavage to the stomach (0.69 mg/mL, 10 mg/mL, 33.3 mg/mL or 100 mg/mL) (n=2 or 3 per dose group). In a gastrointestinal study, rats were anesthetized and Compound 1 was administered directly to the duodenum, jcjunum or ilcum at 1 mg/kg in 0.5% methylcellulose.
Capsules were also administered with Compound 2. Capsules were size 9 gelatin (Torpac, San Diego, Calif.).
Blood samples (approximately 300 μL total blood) were taken from each rat via the jugular vein cannula at pre-dose, and an initial time of 5 or 15 min and then various time points up to 24 hours post-dose (10-11 samples per animal). Samples were collected on wet ice in tubes containing potassium EDTA. After each blood draw, the cannula was flushed with an equivalent volume of heparinized saline (0.1 mL at 40 units/mL). Plasma samples, prepared by centrifugation of whole blood, were stored frozen (−80° C.) prior to analysis.

A further series concerns renal fibrosis. The conditions noted are these: compared with LPA1 (−/−) mice; cited from earlier work.
Series [4] concerns highly peritoneal metastatic pancreatic cancer cell line. To be noted: LPA-induced and ascites-induced; cited from earlier work.
Series [5] concerns pancreatic cancer cell lines. To be noted: in response to LPA and peritoneal fluid (ascites) from pancreatic cancer patients; cited from earlier work.
Where [6] appears, read: male, Beagle, dog, plasma, oral 5 mg/kg, fasted state.

Like-named read-outs stand apart in the source and are kept apart here.

T1 sequence (Q92633 whole entry): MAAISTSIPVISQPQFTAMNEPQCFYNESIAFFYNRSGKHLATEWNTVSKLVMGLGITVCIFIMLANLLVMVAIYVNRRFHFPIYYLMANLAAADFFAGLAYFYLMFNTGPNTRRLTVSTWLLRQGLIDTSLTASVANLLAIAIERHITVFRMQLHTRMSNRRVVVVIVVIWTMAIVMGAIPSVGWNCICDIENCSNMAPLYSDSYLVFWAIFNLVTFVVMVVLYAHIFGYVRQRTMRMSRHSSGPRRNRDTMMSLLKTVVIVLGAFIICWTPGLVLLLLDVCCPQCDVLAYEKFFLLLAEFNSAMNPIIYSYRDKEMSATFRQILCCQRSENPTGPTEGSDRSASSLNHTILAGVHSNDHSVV

One may read the IC50 as the midpoint of a concentration-inhibition curve. For `Cc1noc(-c2ccc(-c3ccc(C4(C(=O)O)CC4)cc3)cc2)c1NC(=O)OC(C)c1ccccc1` (racemic) [Racemic Compound 1], the concentration for half-maximal inhibition (IC50) on Human LPA1 was less than 0.2 µM; at Human LPA3, more than 1 µM.

In general, bioavailability refers to dose-corrected exposure relative to a reference, in per cent. The term clearance denotes the rate of elimination divided by the concentration. By half-life is commonly meant how long it takes for the measured level to halve. The term Cmax denotes the maximum level reached in the sampled fluid or tissue. Regarding `Cc1noc(-c2ccc(-c3ccc(C4(C(=O)[O-])CC4)cc3)cc2)c1NC(=O)O[C@H](C)c1ccccc1.[Na+]` [Compound 2, 1-{4′-[3-methyl-4-((R)-1-phenyl-ethoxycarbonylamino)-isoxazol-5-yl]-biphenyl-4-yl}-cyclopropanecarboxylic acid, sodium salt], the “effect of food on absorption” value in series [1] (dog, fasted vs fed) was “food has little effect on the absorption”. Moreover, the “decrease of AUC” value in series [1] (dosed as a capsule form, fasted) turned out to be 2.5 fold. For the same compound, the bioavailability in series [1] (male, Beagle, dog, plasma, dosed as a capsule form, fasted) came out at 24%; in series [1] (male, Beagle, dog, plasma, human dose solution), 57%; in series [1] (setting [6]), 63%; in series [1] (male, Beagle, dog, plasma, oral 5 mg/kg, fed state), 60%; in series [1] (male, Beagle, dog, plasma, tablet formulation (first of two)), 100%; in series [1] (male, Beagle, dog, plasma, tablet formulation (second of two)), 52%. For the same compound, the Vd in series [1] (male, Beagle, dog, plasma, IV 2 mg/kg, read-out: estimated volume of distribution) is 0.6 L/kg. Besides, in series [1] (male, Beagle, dog, plasma, IV 2 mg/kg, read-out: systemic clearance), the clearance is 0.63 L/h/kg. In addition, the half-life in series [1] (male, Beagle, dog, plasma, IV 2 mg/kg, read-out: terminal half-life (converted)) is 3.9 h; in series [3] (female, IV 1 mg/kg, females), 3.2 h; in series [3] (male, IV 1 mg/kg, males), 3.8 h. Moreover, in series [1] (setting [6]), the concentration peaked (Cmax) at 5.5 µg/mL. Also, the solubility at 24 h in series [2] is not below 10 mg/mL. In series [3] (IV 1 mg/kg), the volume of distribution result is listed as “approximately two-fold total body water”. In addition, the dose normalized exposure is 2.4 µg·h/mL in series [3] and 2.1 µg·h/mL in series [3] (in a gelatin capsule).

For the compound `Cc1noc(-c2ccc(CSCCC(=O)O)cc2)c1NC(=O)OC(C)c1ccccc1Cl` (stereo not shown) [Ki16425], in the series on renal fibrosis, the “development of renal fibrosis in UUO mice” value is recorded as “closely resembled the LPA1 (−/−) mice”. Besides, the invasion activity entry in series [4] is listed as “blocked”. For the same compound, in series [5], the in vitro migration entry is reported as “effectively blocked”.

`Cc1noc(-c2ccc(-c3ccc(C4(C(=O)O)CC4)cc3)cc2)c1NC(=O)O[C@@H](C)c1ccccc1` [S-enantiomer of Compound 1]: the IC50 on Human LPA1 was less than 0.2 µM; on Human LPA3, more than 1 µM.

These data come from patent US20170121295A1, “POLYCYCLIC LPA1 ANTAGONIST AND USES THEREOF” (AMIRA PHARMACEUTICALS, INC., priority 2010, published 2017).
